US20230121771A1, “A PHARMACEUTICAL COMBINATION OF AN ARTEMISININ COMPOUND, 5-AMINOLEVULINIC ACID OR METHYL-5-AMINOLEVULINIC ACID AND A CHEMOTHERAPEUTIC AGENT” (JLP Health GmbH, priority 2020, published 2023)

Legend:
Type in all cases: cell-based
mouse ESCs = assay: Cell survival of artemisinin treated mouse embryonic stem cells (Alamar Blue, 48 h); conditions: artemisinin combined with acifluorfen or 5-ALA (0.5 mM)
Method: (§1) For dosage responses, cells were seeded in 96-wells (25.000/ 96-well, in triplicate -where indicated) and subjected to compounds for 48 h. Cell viability was assessed using automated cell counting (high-throughput flow cytometry), Alamar Blue staining (Invitrogen, DAL1100) or CellTiter-Glo Luminescent Assay (Promega, G7570, according to the manufacturer’s protocol) respectively.

[1] = test system: murine and human cancer cell lines; assay: Cell viability of artemisinin treated cancer cell lines in presence and absence of 5-ALA (Alamar Blue, 48 h); conditions: 4T1, Mcf7, B16F10, 5-ALA 0.5 mM
Method: as §1

[2] = test system: human primary glioblastoma cell lines; assay: Survival of artemisinin treated primary human glioblastoma cells upon 5-ALA (CellTiter-Glo, 72 h); conditions: three independently derived human primary glioblastoma cell lines
Method: […] Cell viability was assessed using automated cell counting (high-throughput flow cytometry), Alamar Blue staining (Invitrogen, DAL1100) or CellTiter-Glo Luminescent Assay (Promega, G7570, according to the manufacturer’s protocol) respectively.

[3] = test system: neuroblastoma cells (SHSY5Y), Jurkat and HL-60 cells; assay: ROS levels by Dihydroethidium (DHE) staining and flow cytometry in cell lines; conditions: SHSY5Y and Jurkat cells; artemisinin 0.5 µM, 5-ALA 0.25 mM
Method: Treated cells were collected, washed with 1x HBSS (without Ca2+ and Mg2+), incubated with 1mM DHE (Dihydroethidium (Hydroethidine), Invitrogen, D11347) in 1x HBSS for 45 min at 37° C., washed twice and counterstained with DAPI or a viability dye (eBioscience™ Fixable Viability Dye eFluor™ 780, 65-0865-18) for 10 min on ice. Cells were then collected, strained and analysed using flow cytometry for DHE in the red fluorescent spectrum (PE channel).

Jurkat cells = assay: JC-1 staining of mitochondrial membrane potential; conditions: 48 h, artemisinin 0.5 µM, 5-ALA 0.25 mM
Method: Cells were collected, washed with 1xPBS, incubated with 2 µM JC-1 in 1PBS (MitoProbe JC-1 Assay Kit-1, Invitrogen, M34152) for 35 min at 37° C., washed twice, and analysed using flow cytometry in the red (PE channel) and green (FITC channel) fluorescence spectrum.

[4] = test system: human cerebral tumor organoids (CNS-PNET); assay: Compound profiling in CNS-PNET cerebral tumor organoids (GFP-positive tumor cells)
Method: Tumor initiation was induced by either oncogene amplification, using a Sleeping Beauty (SB) transposase, or mutation of tumor suppressor genes, using the CRISPR-Cas9 system in day 10 old embryoid bodies (EBs). Plasmids carrying the transposase as well as GFP and the desired oncogenes or expressing Cas9 nuclease were introduced by electroporation. In brief, a mixture of 1 μg DNA and 100 μl nucleofector solution was added to 10 EBs and transferred to a nucleofection cuvette. The Lonza Nucleofector 2b and the A-023 program were used for electroporation/ nucleofection. Thereafter, EBs were transferred into 10 cm dishes containing differentiation media containing vitamin A and embedded into Matrigel 24 hours later. Two different types of tumors were initiated {Bian:2018gs}: Central nervous system primitive neuroectodermal tumors (CNS-PNET) were induced by the overexpression of Myc. Glioblastoma-like tumor group 2 (GBM-2) was caused by mutagenesis of the tumor suppressor genes p53, NF1 and PTEN. All plasmids were designed by Shan Bian {Bian, S. et al. Genetically engineered cerebral organoids model brain tumor formation. Nat. Methods 15, 631-639 (2018)}. Cerebral tumor organoids were treated with different compounds and the survival and growth of transformed as well as untransformed neurons was monitored. Fluorescence labeling of tumor cells allowed clear distinguishability of transformed cells as compared to non-labeled throughout the experiment using brightfield microscopy, as well as fluorescence imaging. The transformed tumor tissue and untransformed neurons within the same organoid was monitored using fluorescence imaging, as well as brightfield microscopy throughout the experiment. At the endpoint of the treatment (d5 or d7 respectively), the number of GFP-positive cells was assessed by flow cytometry. Cerebral (tumor) organoids were enzymatically and mechanically dissociated using 1x trypsin, 35-45 min incubation at 37° C., and gentle shaking. […] Single cells in suspension were counterstained with DAPI or a viability dye (eBioscienceTM Fixable Viability Dye eFluorTM 780, 65-0865-18), and analysed using flow cytometry (BD LSRFortessa HTS Cell Analyzer). The amounts of GFP-positive cells were analyzed. […] Brightfield and green fluorescence images were taken from the same area. Additionally, for image analyses, the Celldiscoverer 7 (Zeiss), a fully integrated high-end automated live cell imaging system, was used. Cerebral organoids were fixed in 4% PFA (room temperature, 1 h), incubated with 30% sucrose (4° C., o/n), OCT (Tissue-tek OCT Compound, […], 4583) embedded and 20 μm sections were cryostat cut (-12/-14° C.). […] Fluorescence Mounting Medium (Dako, S302380) was used for mounting the sample slides. […]

NCC(=O)CCC(=O)O [5-ALA, 5-amino-4-oxopentanoic acid]
susceptibility to artemisinin (cell survival) (mouse ESCs): increased the sensitivity to the anti-malarial compound | sensitivity to artemisinin under combinatorial treatment with 5-ALA [1]: gained hypersensitive to artemisinin | sensitivity to artemisinin cytotoxicity upon 5-ALA [2]: induced artemisinin hypersensitivity to artemisinin cytotoxicity | ROS levels (DHE staining, MFI) [3]: triggered ROS | mitochondrial polarisation (ΔΨm, JC-1) (Jurkat cells): increased mitochondrial polarisation | GFP+ tumor tissue, immunohistochemistry of sectioned organoids [4]: losss of GFP+ tumor tissue | effect on non-transformed neuronal tissues in the cerebral organoids ([4]; Sox2 expressing cells, rosette-like structures): no apparent effect on the non-transformed neuronal tissues | growth of GFP-positive tumor organoids ([4]; very high concentrations, compound alone): notable growth inhibition
